Reference: patent publication US10588317B2, “Isoxazoline-substituted benzamides and analogues as insecticides” (priority 2015, dated 2020)

Assays:
Assay type in all cases: in vivo
Spodoptera littoralis = Spodoptera littoralis (Egyptian cotton leaf worm), sprayed cotton leaf discs; details: foliar, 72 h, application rate 200 ppm, L1 larvae, 3 days after infestation, read-out: control (mortality, anti-feeding effect, growth inhibition)
Outline: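 Five first-instar larvae placed on dried cotton leaf discs (on agar) previously sprayed with aqueous dilutions of 10'000 ppm DMSO stocks. Scored at 3 days against untreated discs for mortality, feeding inhibition and growth inhibition; any category above untreated counts as control.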

Thrips tabaci = Thrips tabaci (onion thrips): feeding/contact activity; details: 144 h, application rate 200 ppm, Thrips population of mixed ages, 6 days after infestation, read-out: mortality
Description: (§1) Sunflower leaf discs were placed on agar in 24-well microtiter plates and sprayed with aqueous test solutions prepared from 10'000 ppm DMSO stock solutions. After drying the leaf discs were infested with a Thrips population of mixed ages. The samples were assessed for mortality 6 days after infestation.

Myzus persicae = Myzus persicae (green peach aphid): feeding/contact activity; details: 144 h, application rate 200 ppm, aphid population of mixed ages, 6 days after infestation, read-out: mortality
Description: Sunflower leaf discs were placed onto agar in a 24-well microtiter plate and sprayed with aqueous test solutions prepared from 10'000 ppm DMSO stock solutions. After drying, the leaf discs were infested with an aphid population of mixed ages. The samples were assessed for mortality 6 days after infestation.

Tetranychus urticae = Tetranychus urticae (two-spotted spider mite): feeding/contact activity; details: 192 h, application rate 200 ppm, mixed population (mobile stages), 8 days after infestation, read-out: mortality
Description: as §1, with “Bean” for “Sunflower”, “discs” for “discs were placed”, “were” for “and”, “mite” for “Thrips”, “on mixed population (mobile stages) 8” for “6”

Euschistus heros = Euschistus heros (neotropical brown stink bug), sprayed soybean leaves; details: 120 h, application rate 200 ppm, N2 nymphs, 5 days after infestation, read-out: effect in at least one of the two categories (mortality or growth inhibition)
Outline: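 Scored 5 days post-infestation versus untreated controls, for both mortality and growth inhibition: N2 nymphs placed on agar-mounted soybean leaves previously sprayed at 200 ppm with aqueous test solutions from DMSO stocks and left to dry.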

Diabrotica balteata = Diabrotica balteata (corn root worm), sprayed maize sprouts; details: 96 h, application rate 200 ppm, L2 larvae, 4 days after infestation, read-out: effect in at least one of the two categories (mortality or growth inhibition)
Outline: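 Read-out at 4 days post-infestation: mortality and growth inhibition relative to untreated samples. Test solutions (200 ppm, from DMSO stocks) were sprayed onto agar-held maize sprouts, which after drying received 6–10 L2 larvae per well.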

Plutella xylostella = Plutella xylostella (diamond back moth), artificial diet; details: 120 h, application rate 200 ppm, L2 larvae, 5 days after infestation, read-out: effect in at least one of the two categories (mortality or growth inhibition)
Outline: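 L2 larvae (10-15 per well) fed on compound-treated, dried artificial diet; test solutions diluted in water from 10'000 ppm DMSO stocks. Readout 5 days post-infestation as mortality or growth inhibition versus untreated diet, with at least 80% effect at 200 ppm as threshold.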

Cc1cc(C2=NO[C@](c3cc(Cl)c(F)c(Cl)c3)(C(F)(F)F)C2)ccc1C(=O)N[C@H]1CON(S(=O)(=O)CC(F)(F)F)C1 [Compound A192, 4-[(5R)-5-(3,5-dichloro-4-fluorophenyl)-5-(trifluoromethyl)-4H-1,2-oxazol-3-yl]-2-methyl-N-[(4R)-2-(2,2,2-trifluoroethylsulfonyl)-1,2-oxazolidin-4-yl]benzamide]
≥ 80%: mortality at 200 ppm (Spodoptera littoralis) | mortality at 200 ppm (Thrips tabaci) | mortality at 200 ppm (Myzus persicae) | mortality at 200 ppm (Tetranychus urticae) | percent effect (mortality or growth inhibition) at 200 ppm (Euschistus heros) | percent effect (mortality or growth inhibition) at 200 ppm (Diabrotica balteata) | percent effect (mortality or growth inhibition) at 200 ppm (Plutella xylostella)

Cc1cc(C2=NO[C@](c3cc(Cl)cc(Cl)c3)(C(F)(F)F)C2)ccc1C(=O)N[C@H]1CON(S(=O)(=O)CCl)C1 [Compound A166, N-[(4R)-2-(chloromethylsulfonyl)-1,2-oxazolidin-4-yl]-4-[(5R)-5-(3,5-dichlorophenyl)-5-(trifluoromethyl)-4H-1,2-oxazol-3-yl]-2-methylbenzamide]
≥ 80%: mortality at 200 ppm (Spodoptera littoralis) | mortality at 200 ppm (Thrips tabaci) | mortality at 200 ppm (Myzus persicae) | mortality at 200 ppm (Tetranychus urticae) | percent effect (mortality or growth inhibition) at 200 ppm (Euschistus heros) | percent effect (mortality or growth inhibition) at 200 ppm (Diabrotica balteata) | percent effect (mortality or growth inhibition) at 200 ppm (Plutella xylostella)

Cc1cc(C2=NO[C@@](c3cc(Cl)c(F)c(Cl)c3)(C(F)(F)F)C2)ccc1C(=O)N[C@H]1CON(S(=O)(=O)NCC(F)(F)F)C1 [Compound A149, 4-[(5S)-5-(3,5-dichloro-4-fluoro-phenyl)-5-(trifluoromethyl)-4H-isoxazol-3-yl]-2-methyl-N-[(4R)-2-(2,2,2-trifluoroethylsulfamoyl)isoxazolidin-4-yl]benzamide]
≥ 80%: mortality at 200 ppm (Spodoptera littoralis) | mortality at 200 ppm (Thrips tabaci) | mortality at 200 ppm (Myzus persicae) | mortality at 200 ppm (Tetranychus urticae) | percent effect (mortality or growth inhibition) at 200 ppm (Euschistus heros) | percent effect (mortality or growth inhibition) at 200 ppm (Diabrotica balteata) | percent effect (mortality or growth inhibition) at 200 ppm (Plutella xylostella)

Cc1cc(C2=NO[C@@](c3cc(Cl)c(OC(F)F)c(Cl)c3)(C(F)(F)F)C2)ccc1C(=O)N[C@@H]1CON(S(=O)(=O)N(C)C)C1 [Compound A205, 4-[(5S)-5-[3,5-dichloro-4-(difluoromethoxy)phenyl]-5-(trifluoromethyl)-4H-1,2-oxazol-3-yl]-N-[(4S)-2-(dimethylsulfamoyl)-1,2-oxazolidin-4-yl]-2-methylbenzamide]
≥ 80%: mortality at 200 ppm (Spodoptera littoralis) | mortality at 200 ppm (Thrips tabaci) | mortality at 200 ppm (Myzus persicae) | mortality at 200 ppm (Tetranychus urticae) | percent effect (mortality or growth inhibition) at 200 ppm (Euschistus heros) | percent effect (mortality or growth inhibition) at 200 ppm (Diabrotica balteata) | percent effect (mortality or growth inhibition) at 200 ppm (Plutella xylostella)

Cc1cc(C2=NO[C@@](c3cc(Cl)cc(Cl)c3)(C(F)(F)F)C2)ccc1C(=O)N[C@@H]1CON(S(=O)(=O)CBr)C1 [Compound A173, N-[(4S)-2-(bromomethylsulfonyl)-1,2-oxazolidin-4-yl]-4-[(5S)-5-(3,5-dichlorophenyl)-5-(trifluoromethyl)-4H-1,2-oxazol-3-yl]-2-methylbenzamide]
≥ 80%: mortality at 200 ppm (Spodoptera littoralis) | mortality at 200 ppm (Thrips tabaci) | mortality at 200 ppm (Myzus persicae) | mortality at 200 ppm (Tetranychus urticae) | percent effect (mortality or growth inhibition) at 200 ppm (Euschistus heros) | percent effect (mortality or growth inhibition) at 200 ppm (Diabrotica balteata) | percent effect (mortality or growth inhibition) at 200 ppm (Plutella xylostella)

Cc1cc(C2=NO[C@@](c3cc(Cl)c(Cl)c(Cl)c3)(C(F)(F)F)C2)ccc1C(=O)N[C@@H]1CON(S(=O)(=O)C2CC2)C1 [Compound A229, N-[(4S)-2-cyclopropylsulfonyl-1,2-oxazolidin-4-yl]-2-methyl-4-[(5S)-5-(3,4,5-trichlorophenyl)-5-(trifluoromethyl)-4H-1,2-oxazol-3-yl]benzamide]
≥ 80%: mortality at 200 ppm (Spodoptera littoralis) | mortality at 200 ppm (Thrips tabaci) | mortality at 200 ppm (Myzus persicae) | mortality at 200 ppm (Tetranychus urticae) | percent effect (mortality or growth inhibition) at 200 ppm (Euschistus heros) | percent effect (mortality or growth inhibition) at 200 ppm (Diabrotica balteata) | percent effect (mortality or growth inhibition) at 200 ppm (Plutella xylostella)

Cc1cc(C2=NO[C@@](c3cc(Cl)c(Cl)c(Cl)c3)(C(F)(F)F)C2)ccc1C(=O)NC1CON(S(=O)(=O)N(C)CC2CO2)C1 (stereo partly drawn) [Compound A83, 2-methyl-N-[2-[methyl(oxiran-2-ylmethyl)sulfamoyl]isoxazolidin-4-yl]-4-[(5S)-5-(3,4,5-trichlorophenyl)-5-(trifluoromethyl)-4H-isoxazol-3-yl]benzamide]
≥ 80%: mortality at 200 ppm (Spodoptera littoralis) | mortality at 200 ppm (Thrips tabaci) | mortality at 200 ppm (Myzus persicae) | mortality at 200 ppm (Tetranychus urticae) | percent effect (mortality or growth inhibition) at 200 ppm (Euschistus heros) | percent effect (mortality or growth inhibition) at 200 ppm (Diabrotica balteata) | percent effect (mortality or growth inhibition) at 200 ppm (Plutella xylostella)

Cc1cc(C2=NOC(c3cc(Cl)c(C#N)c(Cl)c3)(C(F)(F)F)C2)ccc1C(=O)NC1CON(S(C)(=O)=O)C1 (stereo not drawn) [Compound A50]
≥ 80%: mortality at 200 ppm (Spodoptera littoralis) | mortality at 200 ppm (Thrips tabaci) | mortality at 200 ppm (Myzus persicae) | mortality at 200 ppm (Tetranychus urticae) | percent effect (mortality or growth inhibition) at 200 ppm (Euschistus heros) | percent effect (mortality or growth inhibition) at 200 ppm (Diabrotica balteata) | percent effect (mortality or growth inhibition) at 200 ppm (Plutella xylostella)

Cc1cc(C2=NO[C@@](c3cccc(C(F)(F)F)n3)(C(F)(F)F)C2)ccc1C(=O)N[C@H]1CON(S(C)(=O)=O)C1 [Compound A215]
≥ 80%: mortality at 200 ppm (Spodoptera littoralis) | mortality at 200 ppm (Thrips tabaci) | mortality at 200 ppm (Myzus persicae) | mortality at 200 ppm (Tetranychus urticae) | percent effect (mortality or growth inhibition) at 200 ppm (Euschistus heros) | percent effect (mortality or growth inhibition) at 200 ppm (Diabrotica balteata) | percent effect (mortality or growth inhibition) at 200 ppm (Plutella xylostella)

CCN(C)S(=O)(=O)N1C[C@@H](NC(=O)c2ccc(C3=NO[C@@](c4cc(Cl)cc(Cl)c4)(C(F)(F)F)C3)cc2Cl)CO1 [Compound A129, 2-chloro-4-[(5S)-5-(3,5-dichlorophenyl)-5-(trifluoromethyl)-4H-isoxazol-3-yl]-N-[(4R)-2-[ethyl(methyl)sulfamoyl]isoxazolidin-4-yl]benzamide]
≥ 80%: mortality at 200 ppm (Spodoptera littoralis) | mortality at 200 ppm (Thrips tabaci) | mortality at 200 ppm (Myzus persicae) | mortality at 200 ppm (Tetranychus urticae) | percent effect (mortality or growth inhibition) at 200 ppm (Euschistus heros) | percent effect (mortality or growth inhibition) at 200 ppm (Diabrotica balteata) | percent effect (mortality or growth inhibition) at 200 ppm (Plutella xylostella)

Cc1cc(C2=NO[C@](c3cc(Cl)c(F)c(Cl)c3)(C(F)(F)F)C2)ccc1C(=O)N[C@H]1CON(S(=O)(=O)CCl)C1 [Compound A164, N-[(4R)-2-(chloromethylsulfonyl)-1,2-oxazolidin-4-yl]-4-[(5R)-5-(3,5-dichloro-4-fluorophenyl)-5-(trifluoromethyl)-4H-1,2-oxazol-3-yl]-2-methylbenzamide]
≥ 80%: mortality at 200 ppm (Spodoptera littoralis) | mortality at 200 ppm (Thrips tabaci) | mortality at 200 ppm (Myzus persicae) | mortality at 200 ppm (Tetranychus urticae) | percent effect (mortality or growth inhibition) at 200 ppm (Euschistus heros) | percent effect (mortality or growth inhibition) at 200 ppm (Diabrotica balteata) | percent effect (mortality or growth inhibition) at 200 ppm (Plutella xylostella)

Cc1cc(C2=NO[C@@](c3cc(Cl)c(F)c(Cl)c3)(C(F)(F)F)C2)ccc1C(=O)N[C@@H]1CON(S(=O)(=O)C2CC2)C1 [Compound A228, N-[(4S)-2-cyclopropylsulfonyl-1,2-oxazolidin-4-yl]-4-[(5S)-5-(3,5-dichloro-4-fluorophenyl)-5-(trifluoromethyl)-4H-1,2-oxazol-3-yl]-2-methylbenzamide]
≥ 80%: mortality at 200 ppm (Spodoptera littoralis) | mortality at 200 ppm (Thrips tabaci) | mortality at 200 ppm (Myzus persicae) | mortality at 200 ppm (Tetranychus urticae) | percent effect (mortality or growth inhibition) at 200 ppm (Euschistus heros) | percent effect (mortality or growth inhibition) at 200 ppm (Diabrotica balteata) | percent effect (mortality or growth inhibition) at 200 ppm (Plutella xylostella)
